The target of one test is NAMPT (Homo sapiens, UniProt P43490). The test can be described thus: TR-FRET Binding Assay of NAMPT with PRPP. The following applies: with 200 μM PRPP and 2.5 mM ATP; 2 nM NAMPT, 2 nM probe, 16 hours equilibration. The gist of the method:
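TR-FRET probe-displacement binding with 2 nM NAMPT, 2 nM probe and 1 nM Tb-anti-His antibody, run in the presence of 200 μM PRPP and 2.5 mM ATP at 2% DMSO. Equilibrated 16 hours before reading so test compounds could undergo enzymatic modification.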

Test [1] concerns the target NAMPT (human, recombinant, C-terminally His-tagged) (Homo sapiens, UniProt P43490). The test can be described thus: Time-Resolved Fluorescence Resonance Energy Transfer (TR-FRET) Binding Assay of NAMPT. The following applies: without substrates; 6.8 nM NAMPT, 200 nM probe, 3 hours equilibration. The method in brief: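 11-pt half-log compound series; final 6.8 nM NAMPT, 200 nM OG488 nicotinamide-competitive probe, 1 nM Tb-anti-His Ab, 2% DMSO, HEPES pH 7.5/NaCl/MgCl2/DTT/glycerol buffer. 3 h RT equilibration. Em520/Em495 ratio (Ex 337 nm), control-normalized, 4-parameter fit → IC50.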

The subject of a further test is PC3 cells. In words: NAMPT Cell Proliferation Assay. Conditions: Homo sapiens, PC-3, 120 h, 5 days incubation, cell viability by Cell Titer Glo. The format is cell-based. The method in brief: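 IC50 values derive from sigmoidal dose-response fits of percent inhibition of PC3 viability, measured by luminescence after 5 days of compound treatment. Cells (500/well, RPMI containing 10% heat-inactivated FBS) are allowed to attach overnight, and compounds are tested at 10-fold dilutions between 10 μM and 1×10^−5 μM.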

Structures are written as SMILES.

Chain of NAMPT (human, recombinant, C-terminally His-tagged) (P43490 whole entry): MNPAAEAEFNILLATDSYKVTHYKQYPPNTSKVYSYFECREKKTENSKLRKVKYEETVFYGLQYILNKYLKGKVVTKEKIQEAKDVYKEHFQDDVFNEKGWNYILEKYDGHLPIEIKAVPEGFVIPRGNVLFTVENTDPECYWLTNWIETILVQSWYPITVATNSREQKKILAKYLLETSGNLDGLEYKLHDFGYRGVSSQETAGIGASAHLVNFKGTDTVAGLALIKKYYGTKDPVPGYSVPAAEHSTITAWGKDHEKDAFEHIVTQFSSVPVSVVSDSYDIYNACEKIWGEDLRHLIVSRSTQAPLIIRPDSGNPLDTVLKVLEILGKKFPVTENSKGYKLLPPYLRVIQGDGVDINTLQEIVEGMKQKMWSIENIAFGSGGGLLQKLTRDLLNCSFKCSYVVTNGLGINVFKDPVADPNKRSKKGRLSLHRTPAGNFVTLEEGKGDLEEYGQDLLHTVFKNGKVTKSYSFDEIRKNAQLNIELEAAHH
Chain of NAMPT (P43490 whole entry): as above

In the case of `CC(C)(O)CC(=O)N1CCC(c2ccc(NC(=O)NCc3ccn4ccnc4c3)cc2)CC1` [Example 226, 1-{4-[1-(3-hydroxy-3-methylbutanoyl)piperidin-4-yl]phenyl}-3-(imidazo[1,2-a]pyridin-7-ylmethyl)urea], the figures for the IC50 (on NAMPT; in test [1]; in the test on PC3 cells) were 0.608 nM, 113 nM and 7.26 nM, respectively.
Take `O=C(CC1CCCC1)Nc1ccc(C(=O)NCc2ccn3ncnc3c2)cc1` [Example 546, 4-[(cyclopentylacetyl)amino]-N-([1,2,4]triazolo[1,5-a]pyridin-7-ylmethyl)benzamide]: the IC50 is 23.2 nM at NAMPT, 237 nM in test [1] and 2450 nM in the test with PC3 cells.
In the same order, the values of `COC[C@H]1CCCN1C(=O)c1ccc(C(=O)NCc2ccn3ccnc3c2)s1` [Example 823, N-(imidazo[1,2-a]pyridin-7-ylmethyl)-5-{[(2R)-2-(methoxymethyl)pyrrolidin-1-yl]carbonyl}thiophene-2-carboxamide] are 0.356 nM, 189 nM and 4.62 nM.
In the same order, the values of `O=C(NCc1ccn2ccnc2c1)Nc1ccc(C2CCN(C(=O)[C@H]3CCOC3)C2)cc1` (stereo partly drawn) [Example 388, 1-(imidazo[1,2-a]pyridin-7-ylmethyl)-3-(4-{1-[(3S)-tetrahydrofuran-3-ylcarbonyl]pyrrolidin-3-yl}phenyl)urea] are 0.506 nM, 388 nM and 122 nM.
As for `CC(C)C[C@@H](NC(=O)C1CC1)c1ccc(C(=O)NCc2ccn3ccnc3c2)s1` [Example 685, 5-{(1R)-1-[(cyclopropylcarbonyl)amino]-3-methylbutyl}-N-(imidazo[1,2-a]pyridin-7-ylmethyl)thiophene-2-carboxamide], the IC50 at NAMPT turned out to be 1.36 nM; in test [1], 1250 nM; in the test on PC3 cells, 74 nM.
Take `O=C(NCc1ccn2ccnc2c1)c1ccc(C2CN(C(=O)c3cncs3)C2)cc1` [Example 634, N-(imidazo[1,2-a]pyridin-7-ylmethyl)-4-[1-(1,3-thiazol-5-ylcarbonyl)azetidin-3-yl]benzamide]: the IC50 at NAMPT was found to be 0.648 nM; in test [1] it was 353 nM; in the test on PC3 cells it was 83.5 nM.
`Cn1nccc1C(=O)N1CCC(c2ccc(C(=O)NCc3ccn4ccnc4c3)cc2)CC1` [Example 511, N-(imidazo[1,2-a]pyridin-7-ylmethyl)-4-{1-[(1-methyl-1H-pyrazol-5-yl)carbonyl]piperidin-4-yl}benzamide]: the figures for the 50% inhibitory concentration (IC50) (at NAMPT; in test [1]; with PC3 cells) were 0.286 nM, 65.3 nM and 2.78 nM, respectively.
For `CCC(C)CC(=O)N1CC(c2ccc(C(=O)NCc3ccn4ccnc4c3)cc2)C1` (stereo not drawn) [Example 630, N-(imidazo[1,2-a]pyridin-7-ylmethyl)-4-[1-(3-methylpentanoyl)azetidin-3-yl]benzamide], the IC50 is 0.563 nM at NAMPT, 266 nM in test [1] and 40.4 nM in the test with PC3 cells.
The like results for `CC1(C(=O)N2CCC(c3ccc(C(=O)NCc4ccn5ccnc5c4)cc3)CC2)COC1` [Example 512, N-(imidazo[1,2-a]pyridin-7-ylmethyl)-4-{1-[(3-methyloxetan-3-yl)carbonyl]piperidin-4-yl}benzamide] were, in that order, 0.209 nM, 631 nM and 17.9 nM.
In the same order, the values of `CC(C)(C)OC(=O)N1CCC(Cn2cc(-c3ccc(C(=O)NCc4ccn5ccnc5c4)s3)cn2)CC1` [Example 466, tert-butyl 4-[(4-{5-[(imidazo[1,2-a]pyridin-7-ylmethyl)carbamoyl]thiophen-2-yl}-1H-pyrazol-1-yl)methyl]piperidine-1-carboxylate] are 0.287 nM, 74.9 nM and 4.31 nM.
The like results for `O=C(NCc1ccn2ccnc2c1)c1ccc(C2CCN(C(=O)[C@H]3CCCO3)CC2)cc1` [Example 310, N-(imidazo[1,2-a]pyridin-7-ylmethyl)-4-{1-[(2R)-tetrahydrofuran-2-ylcarbonyl]piperidin-4-yl}benzamide] were, in that order, 0.217 nM, 564 nM and 24.4 nM.
For the molecule `O=C(NCc1ccn2ccnc2c1)c1ccc(-c2cnn(CC(F)(F)F)c2)o1` [Example 738, N-(imidazo[1,2-a]pyridin-7-ylmethyl)-5-[1-(2,2,2-trifluoroethyl)-1H-pyrazol-4-yl]furan-2-carboxamide], the IC50 at NAMPT is 0.705 nM; in test [1], 364 nM; in the test with PC3 cells, 85.9 nM.
The like results for `Cc1cccc(C(=O)N2CC(c3ccc(C(=O)NCc4ccn5ccnc5c4)cc3)C2)c1` [Example 667, N-(imidazo[1,2-a]pyridin-7-ylmethyl)-4-[1-(3-methylbenzoyl)azetidin-3-yl]benzamide] were, in that order, 0.798 nM, 226 nM and 45.8 nM.
In the same order, the values of `O=C(NCc1ccn2ccnc2c1)c1ccc(C2CCN(C(=O)c3ccccc3F)CC2)s1` [Example 677, 5-[1-(2-fluorobenzoyl)piperidin-4-yl]-N-(imidazo[1,2-a]pyridin-7-ylmethyl)thiophene-2-carboxamide] are 0.796 nM, 1.77 nM and 0.613 nM.
In the same order, the values of `O=C(NCc1ccn2ccnc2c1)c1ccc(C2CCN(C(=O)CC3CCOCC3)CC2)s1` [Example 262, N-(imidazo[1,2-a]pyridin-7-ylmethyl)-5-[1-(tetrahydro-2H-pyran-4-ylacetyl)piperidin-4-yl]thiophene-2-carboxamide] are 0.221 nM, 3.67 nM and 1.87 nM.
As for `COCCC(=O)N(Cc1ccc(C#N)cc1)c1ncc(C(=O)Nc2ccc3nccn3c2)s1` [Example 54, 2-[(4-cyanobenzyl)(3-methoxypropanoyl)amino]-N-(imidazo[1,2-a]pyridin-6-yl)-1,3-thiazole-5-carboxamide], the IC50 at NAMPT is 2.55 nM; in test [1], 363 nM; in the test with PC3 cells, 303 nM.
The like results for `CC1(Cn2cc(-c3ccc(C(=O)NCc4ccn5ccnc5c4)s3)cn2)CCOCC1` [Example 576, N-(imidazo[1,2-a]pyridin-7-ylmethyl)-5-{1-[(4-methyltetrahydro-2H-pyran-4-yl)methyl]-1H-pyrazol-4-yl}thiophene-2-carboxamide] were, in that order, 0.783 nM, 16 nM and 0.569 nM.
For the molecule `CCC(=O)C(=O)N1CCC(c2ccc(C(=O)NCc3ccn4ccnc4c3)cc2)CC1` [Example 518, N-(imidazo[1,2-a]pyridin-7-ylmethyl)-4-[1-(2-oxobutanoyl)piperidin-4-yl]benzamide], the IC50 stood at 0.169 nM on NAMPT, 234 nM in test [1] and 34.8 nM in the test with PC3 cells.
The like results for `COCCC(=O)N(C[C@H]1CCCO1)c1ncc(C(=O)NCc2ccc3nccn3c2)s1` [Example 145, N-(imidazo[1,2-a]pyridin-6-ylmethyl)-2-{(3-methoxypropanoyl)[(2R)-tetrahydrofuran-2-ylmethyl]amino}-1,3-thiazole-5-carboxamide] were, in that order, 1.08 nM, 191 nM and 6.01 nM.
Take `CC(C)C(=O)N1CC(Oc2ccc(C(=O)NCc3ccn4ccnc4c3)cc2)C1` [Example 558, N-(imidazo[1,2-a]pyridin-7-ylmethyl)-4-{[1-(2-methylpropanoyl)azetidin-3-yl]oxy}benzamide]: the 50% inhibitory concentration (IC50) at NAMPT stood at 0.352 nM; in test [1] it was 1410 nM; with PC3 cells, 1170 nM.
Take `O=C(NCCCCC1CCN(C(=O)c2ccccc2)CC1)Nc1ccn2ccnc2c1` [Example 270, 1-[4-(1-benzoylpiperidin-4-yl)butyl]-3-imidazo[1,2-a]pyridin-7-ylurea]: the values for the IC50 (at NAMPT; in test [1]; in the test with PC3 cells) were 0.991 nM, 60.9 nM and 973 nM, respectively.
On to `O=C(NCc1ccn2ccnc2c1)Nc1ccc(C2CCN(C(=O)CC3CC3)C2)cc1` (stereo not drawn) [Example 382], for which the IC50 was determined as 0.204 nM on NAMPT, 119 nM in test [1] and 83.8 nM in the test with PC3 cells.
For the molecule `O=C(NCc1ccn2ccnc2c1)c1ccc(-c2cnn(CCO)c2)s1` [Example 317, 5-[1-(2-hydroxyethyl)-1H-pyrazol-4-yl]-N-(imidazo[1,2-a]pyridin-7-ylmethyl)thiophene-2-carboxamide], the IC50 on NAMPT was determined as 0.282 nM; in test [1], 317 nM; in the test on PC3 cells, 542 nM.
In the same order, the values of `O=C(NCc1ccn2ccnc2c1)c1ccc(OC2CCN(C(=O)C3CCOCC3)CC2)cc1` [Example 420, N-(imidazo[1,2-a]pyridin-7-ylmethyl)-4-{[1-(tetrahydro-2H-pyran-4-ylcarbonyl)piperidin-4-yl]oxy}benzamide] are 0.226 nM, 2710 nM and 147 nM.
In the same order, the values of `CC(C)(C)OC(=O)N1CC=C(c2ccc(NC(=O)NCc3ccn4ccnc4c3)c(F)c2)CC1` [Example 290, tert-butyl 4-(3-fluoro-4-{[(imidazo[1,2-a]pyridin-7-ylmethyl)carbamoyl]amino}phenyl)-3,6-dihydropyridine-1(2H)-carboxylate] are 0.96 nM, 415 nM and 72.2 nM.

The values are drawn from patent US9187472B2 (AbbVie Inc., priority 2012, dated 2015).
